Series [1] relates to cynomolgus monkeys. The note with it: cynomolgus monkey, in vivo. From the text: In order to find ort whether any toxic side effects of FGFR4 inhibition are due to elevated bile acid levels, the effect of co-administering agents which interfere with bile acid levels was examined. […] For reducing bile acid levels, the bile acid sequestrant colestyramine (Quantalan™) was used. Ursodeoxycholic acid (Ursofalk™) was used as a second compound for increasing the transport of bile acids out of the liver. Ursodeoxycholic acid is a hydrophilic bile acid that increases bile acid transporter expression and plasma membrane translocation in the liver, (palliative compounds 1 and 2). The study design included four cynomolgus monkeys (two male, two female) per group. The animals were assigned to the following groups [table] […] Duration and frequency: three administrations at 7-day interval (i.e. day 0, day 7 and day 14). The first day of dosing was designated as day 0. After the last administration, the animals were kept for a treatment-free period of at east 28 days. Method: intravenous injection (slow bolus) using a pump system and a microflex infusion set introduced into a vein after local disinfection with an aqueous solution of ethyl alcohol. After injection, the vein was flushed with sterile physiological saline. Volume administered: 9.52 mL/kg/day. Individual dose volumes were calculated using the latest body weight. Palliative Compounds and Vehicle Route: oral. Frequency: twice daily at 8 hours±1 hour apart. Duration: each day from day 0 to the last day of treatment-free period, i.e. at least 41 days of administrations. Method: naso-gastric intubation (animals are trained to this administration rotate five days before the start of treatment). […] Individual dose volumes were calculated using the latest body weight. […] FGF19 serum levels were determined using quantiquine human FGF19 ELISA from RND according to the manufacturer's instructions. RNA expression of cyno liver and ileum samples for Cyp7A1 (liver) and FGF19 (Ileum) were determined using the High-Capacity RNA-to-cDNA Kit (Applied Biosystems/Life Technologies) followed by subsequent quantitative real-time PCR.

For series [2], the system named is cynomolgus monkeys. The note with it: cynomolgus monkey, in vivo. The source says:
In order to find ort whether any toxic side effects of FGFR4 inhibition are due to elevated bile acid levels, the effect of co-administering agents which interfere with bile acid levels was examined. […] For reducing bile acid levels, the bile acid sequestrant colestyramine (Quantalan™) was used. Ursodeoxycholic acid (Ursofalk™) was used as a second compound for increasing the transport of bile acids out of the liver. Ursodeoxycholic acid is a hydrophilic bile acid that increases bile acid transporter expression and plasma membrane translocation in the liver, (palliative compounds 1 and 2).
The study design included four cynomolgus monkeys (two male, two female) per group. The animals were assigned to the following groups
Duration and frequency: three administrations at 7-day interval (i.e. day 0, day 7 and day 14). The first day of dosing was designated as day 0. […]
The test animals were examined for clinical signs, liver enzymes, bile acid levels and FGF19. FGF19 serum levels were determined using quantiquine human FGF19 ELISA from RND according to the manufacturer's instructions. RNA expression of cyno liver and ileum samples for Cyp7A1 (liver) and FGF19 (Ileum) were determined using the High-Capacity RNA-to-cDNA Kit (Applied Biosystems/Life Technologies) followed by subsequent quantitative real-time PCR. […]
The source holds these as a separate data set.

From patent US11648310B2, “Combination of anti-FGFR4-antibody and bile acid sequestrant” (Daiichi Sankyo Europe GmbH, priority 2015, dated 2023) come the findings set out here.

On to “colestyramine [Quantalan™, reference compound]”, for which, in the series on cynomolgus monkeys [1], the Alanine aminotransferase activity result was “within the normal range”, the Bile acid concentration result is on record as “within the normal range” and the “Reversibility of the aspartate aminotransferase effect” value is “reversible”. Also, in the series with cynomolgus monkeys [2], the Histopathological changes entry is recorded as “no histopathological changes”.
